test system: HCV 1b genotype replicon; assay: HCV replicon assay (qRT-PCR or luciferase), genotype 1b; assay type: cell-based; conditions: Hepatitis C virus; HCV 1b replicon cell lines (SGR 11-7 or Huh-luc/neo-ET); qRT-PCR or luciferase readout; two labels in one cell = mixture of the two compounds tested; read-out: Genotype-1b replicon EC50 Range
Description: HCV replicon cell lines (kindly provided by R. Bartenschlager) isolated from colonies as described by Lohman et. al. (Lohman et al. (1999) Science 285: 110-113, expressly incorporated by reference in its entirety) and used for all experiments. The HCV replicon has the nucleic acid sequence set forth in EMBL Accession No.: AJ242651, the coding sequence of which is from nucleotides 1801 to 8406.
The coding sequence of the published HCV replicon was synthesized and subsequently assembled in a modified plasmid pBR322 (Promega, Madison, Wis.) using standard molecular biology techniques. One replicon cell line (“SGR 11-7”) stably expresses HCV replicon RNA which consists of (i) the HCV 5′UTR fused to the first 12 amino acids of the capsid protein, (ii) the neomycin phosphotransferase gene (neo), (iii) the IRES from encephalomyocarditis virus (EMCV), and (iv) HCV NS2 to NS5B genes and the HCV 3′UTR. Another replicon cell line (“Huh-luc/neo-ET”) described by Vrolijk et. al. (Vrolijk et. al. (2003) Journal of Virological Methods 110:201-209, expressly incorporated by reference in its entirety) stably expresses HCV replicon RNA which consists of (i) the HCV 5′UTR fused to the first 12 amino acids of the capsid protein, (ii) the firefly luciferase reporter gene, (iii) the ubiquitin gene, (iv) the neomycin phosphotransferase gene (neo), (v) the IRES from encephalomyocarditis virus (EMCV), and (vi) HCV NS3 to NS5B genes that harbor cell culture adaptive mutations (E1202G, T1280I, K1846T) and the HCV 3′UTR.
These cell lines were maintained at 37° C., 5% CO2, 100% relative humidity in DMEM (Cat#11965-084, Invitrogen), with 10% fetal calf serum (“FCS”, Invitrogen), 1% non-essential amino acids (Invitrogen), 1% of Glutamax (Invitrogen), 1% of 100× penicillin/streptomycin (Cat#15140-122, Invitrogen) and Geneticin (Cat#10131-027, Invitrogen) at 0.75 mg/ml or 0.5 mg/ml for 11-7 and Huh-luc/neo-ET cells, respectively.
EC50 values of single agent compounds and combinations were determined by HCV RNA detection using quantitative RT-PCR, according to the manufacturer's instructions, with a TAQMAN® One-Step RT-PCR Master Mix Reagents Kit (Cat# AB 4309169, Applied Biosystems) on an ABI Model 7500 thermocycler. The TaqMan primers used for detecting and quantifying HCV RNA were obtained from Integrated DNA Technologies. HCV RNA was normalized to GAPDH RNA levels in drug-treated cells, which was detected and quantified using the Human GAPDH Endogenous Control Mix (Applied Biosystems, AB 4310884E). Total cellular RNA was purified from 96-well plates using the RNAqueous 96 kit (Ambion, Cat# AM1812). Chemical agent cytotoxicity was evaluated using an MTS assay according to the manufacturer's directions (Promega).
Since clinical drug resistance often develops in viral infections following single agent therapies, there is a need to assess the additive, antagonistic, or synergistic properties of combination therapies. We use the HCV replicon system to assess the potential use of the compound of the present invention or in combination therapies with Interferon alpha, cyclosporine analogs and inhibitors targeting other HCV proteins. The acute effects of a single or combinations of drugs are studied in the “Huh-luc/neo-ET” replicon with each chemical agent titrated in an X or Y direction in a 6 point two-fold dilution curve centered around the EC50 of each drug. Briefly, replicon cells are seeded at 7,000 cells per well in 90 ul DMEM (without phenol red, Invitrogen Cat.#31053-036) per well with 10% FCS, 1% non-essential amino acids, 1% of Glutamax and 1% of 100× penicillin/streptomycin and incubated overnight at 37° C., 5% CO2, 100% relative humidity. […]

Row | SMILES | EC50 [nM]
1 | COC(=O)N[C@H](C(=O)N1CCC(C(=O)Nc2ccc(-c3ccc4[nH]c([C@@H]5CCCN5C(=O)[C@@H](NC(=O)OC)C(C)C)nc4c3)cc2)C1)C(C)C (stereo partly shown) [Example 363] | > 10
2 | COC(=O)N[C@H](C(=O)N1CCC[C@@H]1CNC(=O)c1ccc(-c2ccc(-c3cnc([C@@H]4CCCN4C(=O)[C@@H](NC(=O)OC)C(C)C)[nH]3)cc2)cc1)C(C)C [Example 380] | 1 to 10
3 | COC(=O)N[C@H](C(=O)N1CC[C@@H](NC(=O)c2ccc(-c3ccc(-c4c[nH]c([C@@H]5CCCN5C(=O)[C@@H](NC(=O)OC)C(C)C)n4)cc3)cc2)C1)C(C)C [Example 352] | 1 to 10
4 | COC(=O)N[C@H](C(=O)N[C@@H]1CCC[C@H]1NC(=O)c1ccc(-c2ccc(-c3c[nH]c(C4CCCN4C(=O)[C@@H](NC(=O)OC)C(C)C)n3)cc2)cc1)C(C)C (mixture of isomers) [367a and 367b] | < 1
5 | COC(=O)N[C@H](C(=O)N1CC[C@@H](C(=O)Nc2ccc(-c3ccc(-c4c[nH]c([C@@H]5CCCN5C(=O)[C@@H](NC(=O)OC)C(C)C)n4)cc3)cc2)C1)C(C)C [Example 374] | < 1
6 | COC(=O)N[C@H](C(=O)NC[C@H]1CCCN1C(=O)c1ccc(-c2ccc(-c3cnc([C@@H]4CCCN4C(=O)[C@@H](NC(=O)OC)C(C)C)[nH]3)cc2)cc1)C(C)C [Example 381] | > 10
7 | COC(=O)N[C@H](C(=O)N1CC[C@H](C(=O)Nc2ccc(-c3ccc(-c4c[nH]c([C@@H]5CCCN5C(=O)[C@@H](NC(=O)OC)C(C)C)n4)cc3)cn2)C1)C(C)C [Example 379] | < 1
8 | COC(=O)N[C@H](C(=O)N1CC[C@H](C(=O)Nc2ccc(-c3ccc(-c4cnc([C@@H]5CCCN5C(=O)[C@@H](NC(=O)OC)C(C)C)[nH]4)cc3)cc2)C1)C(C)C [Example 83] | 1 to 10
9 | COC(=O)N[C@H](C(=O)N1CC[C@H](C(=O)Nc2ccc3cc(-c4ccc5[nH]c([C@@H]6CCCN6C(=O)[C@@H](NC(=O)OC)C(C)C)nc5c4)ccc3c2)C1)C(C)C [Example 327] | > 10
10 | COC(=O)N[C@H](C(=O)N1CCC(C(=O)Nc2ccc(-c3ccc(-c4c[nH]c([C@@H]5CCCN5C(=O)[C@@H](NC(=O)OC)C(C)C)n4)cc3)cc2)C1)C(C)C (stereo partly shown) [Example 355] | 1 to 10
11 | COC(=O)N[C@H](C(=O)N1CC[C@H](NC(=O)c2ccc(-c3ccc(-c4c[nH]c([C@@H]5CCCN5C(=O)[C@@H](NC(=O)OC)C(C)C)n4)cc3)cc2)C1)C(C)C [Example 372] | 1 to 10
12 | COC(=O)N[C@H](C(=O)N[C@@H]1CCC[C@H]1NC(=O)c1ccc(-c2ccc(-c3ccc4[nH]c([C@@H]5CCCN5C(=O)[C@@H](NC(=O)OC)C(C)C)nc4c3)cc2)cc1)C(C)C (racemic) [371a and 371b] | < 1
13 | COC(=O)N[C@H](C(=O)N1CC[C@H](C(=O)Nc2ccc3cc(-c4ccc(-c5c[nH]c([C@@H]6CCCN6C(=O)[C@@H](NC(=O)OC)C(C)C)n5)cc4)ccc3c2)C1)C(C)C [Example 365] | 1 to 10
14 | COC(=O)N[C@H](C(=O)N[C@@H]1CCC[C@H]1NC(=O)c1ccc(-c2ccc(-c3c[nH]c([C@@H]4CCCN4C(=O)[C@@H](NC(=O)OC)C(C)C)n3)cc2)cc1)C(C)C [Example 369] | > 10
15 | COC(=O)N[C@H](C(=O)N1CCC[C@H]1CNC(=O)c1ccc(-c2ccc(-c3cnc([C@@H]4CCCN4C(=O)[C@@H](NC(=O)OC)C(C)C)[nH]3)cc2)cc1)C(C)C [Example 257] | < 1
16 | COC(=O)N[C@H](C(=O)N1CCC[C@@H](C(=O)Nc2ccc(-c3ccc(-c4cnc([C@@H]5CCCN5C(=O)[C@@H](NC(=O)OC)C(C)C)[nH]4)cc3)cc2)C1)C(C)C (racemic) [382a and 382b] | < 1
17 | COC(=O)N[C@H](C(=O)O[C@@H]1CCC[C@H]1NC(=O)c1ccc(-c2ccc(-c3c[nH]c([C@@H]4CCCN4C(=O)[C@@H](NC(=O)OC)C(C)C)n3)cc2)cc1)C(C)C (racemic) [377a and 377b] | < 1
18 | COC(=O)N[C@H](C(=O)N1CCC[C@H]1CNC(=O)c1cccc(-c2ccc3cc(-c4c[nH]c([C@@H]5CCCN5C(=O)[C@@H](NC(=O)OC)C(C)C)n4)ccc3c2)c1)C(C)C [Example 361] | 1 to 10
19 | COC(=O)N[C@H](C(=O)N[C@H]1CCC[C@@H]1C(=O)Nc1ccc(-c2ccc(-c3c[nH]c([C@@H]4CCCN4C(=O)[C@@H](NC(=O)OC)C(C)C)n3)cc2)cc1)C(C)C (racemic) [349a and 349b] | 1 to 10

Source: patent US8822700B2, “Hepatitis C virus inhibitors” (Enanta Pharmaceuticals, Inc., priority 2009, dated 2014)
